{"source": "patent US20260027083A1", "about": "“USE OF PPAR AGONIST FOR IMPROVEMENT OF ENERGY METABOLISM” (NOVMETAPHARMA CO., LTD., priority 2022, published 2026)", "key": {"high-fat diet mice [1]": {"tested_on": "high-fat diet mice", "test": "High-fat diet mice: body weight and food intake", "type": "in vivo, C57BL/6J mice", "details": "5 mg/kg/day oral, 13 weeks, 60% HFD, vs HFD-V, FIG. 6", "description": "(§1) The care and use of experimental animals were carried out with the approval of the Institutional Animal Care and Use Committee of Pohang University of Science and Technology. C57BL/6J mice were purchased from Japan SLC, Inc. 50 four-week-old male C57/BL/6J mice were acclimated for 2 weeks. The mice were randomly divided and orally administered with vehicle or 5 mg/kg/day of D6 or WY14643 for 13 weeks (oral gavage), and obesity was induced by a 60% high-fat diet (#D12492, Research diets, NJ, USA). Body weights and food intakes were measured weekly from 6 weeks of age, and after 16 weeks of age, adipose tissue and muscle volumes were measured using a Trimodality imaging system.\n(§2) To confirm a metabolic disease inhibitory effect of the compound represented by Chemical Formula 1 through animal experiments, mice were acclimated for 2 weeks, and then obesity was induced by feeding a 60% high fat diet (HFD) and orally administered with vehicle or 5 mg/kg/day of the compound represented by Chemical Formula 1 (D6) or WY14643 for 13 weeks. Experiments such as IP-GTT, IP-ITT, and micro-CT were performed at the week 10 of drug administration (FIG. 5)."}, "[2]": {"biological_target": "T1, His-tagged recombinant human PPARγ ligand binding domain (Homo sapiens, UniProt P37231)", "T1 construct": "made in house; host or cells: E. coli (DE3, Rosetta)", "T1 sequence (P37231 238-503 limits assumed)": "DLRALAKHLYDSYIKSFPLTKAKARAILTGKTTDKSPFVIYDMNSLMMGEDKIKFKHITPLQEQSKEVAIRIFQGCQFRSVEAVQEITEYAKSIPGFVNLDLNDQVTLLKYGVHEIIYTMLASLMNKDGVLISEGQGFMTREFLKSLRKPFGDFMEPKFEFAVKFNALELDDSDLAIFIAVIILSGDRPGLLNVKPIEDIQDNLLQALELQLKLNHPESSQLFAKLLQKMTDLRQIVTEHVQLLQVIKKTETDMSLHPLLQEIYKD", "test": "CNBr-bead conjugation (pull-down) assay, hPPARγ-LBD", "details": "CNBr-coupled drug, positive control rosiglitazone, FIG. 2", "description": "A compound of the present invention represented by Chemical Formula 1 was synthesized by DAEJUNG Chemicals & Metals (Gyeonggi-do, Korea) (indicated as ‘D6’ in the drawing). WY14643, GW501516, and rosiglitazone were purchased from Sigma-Aldrich (St. Louis, MO, USA). The compounds were dissolved in dimethyl sulfoxide (DMSO), diluted in a culture solution, and used in the experiment. Cyanogen bromide (CNBr)-activated Sepharose 4B was purchased from Sigma-Aldrich (St. Louis, MO, USA). His-tagged recombinant human PPAR-ligand binding domain (LBD) was expressed in E. coli (DE3, Rosetta) and then purified and used. A His antibody was purchased from Cell Signaling Technology (Danvers, Massachusetts, USA). 3-Isobutyl-1-methylxanthine (IBMX), dexamethasone, bovine pancreatic insulin, and Oil Red O were purchased from Sigma-Aldrich (St. Louis, MO, USA). A PRO-PREP™ Protein Extraction Solution was purchased from iNtRON Biotechnology (iNtRON Biotech., Korea). […]\n100 mg of CNBr-activated Sepharose 4B was added to an e-tube, and then the beads were activated by rotating with 1 ml of 1 mM HCl for 10 minutes at room temperature. […] Each e-tube was added with the drug and rotated overnight at 4° C., at which time the concentration was measured to be 20 μM. […] The supernatant was completely removed, and the pellet was detected by Western blotting. […]"}, "high-fat diet mice [3]": {"tested_on": "high-fat diet mice", "test": "Histology of liver tissues of high-fat diet mice (H&E, Sirius Red, Oil Red O, NAFLD activity score)", "type": "in vivo, C57BL/6J mice", "details": "5 mg/kg/day oral, 13 weeks HFD", "description": "After the differentiation of 3T3-L1 in the 12-well plate was completed, the cells were fixed with 4% paraformaldehyde and stained with an Oil Red O solution, and then the stained samples were photographed under a microscope (Nikon Eclipse Ti-s). An Oil Red O dye of the samples was dissolved in isopropanol, detected by a spectrophotometer at 492 nm, and the lipid droplet size distribution was measured using ImageJ. OCT-embedded liver samples were stained according to the Roy Ellis protocol.\nas §1\nMouse tissues were fixed with 10% formalin solution (Sigma-Aldrich, St. Louis, MO, USA), and paraffin-embedded tissues were segmented and stained with hematoxylin and eosin (H&E) staining and Sirius Red staining (IHC world, Woodstock, USA).\nFibrosis and vesicular fat in liver tissue were observed using Sirius Red and Oil Red O staining methods. The NAFLD activation score was evaluated by referring to Kleiner, D. E. et al. Hepatology 41, 1313-1321, doi: 10.1002/hep.20701 (2005), etc., according to the NASH Clinical Research Network Scoring System.\nTo evaluate the effects on fatty liver-related symptoms after administration of the compound represented by Chemical Formula […], Sirius Red, and Oil Red O staining were performed on liver tissues of mice fed with a high-fat diet for 13 weeks."}, "high-fat diet mice [4]": {"tested_on": "high-fat diet mice", "test": "High-fat diet mice: micro-CT adipose tissue volume", "type": "in vivo, C57BL/6J mice", "details": "5 mg/kg/day oral, 60% HFD, vs control group, FIGS. 7 and 8", "description": "as §1, §2"}}}
{"molecule": "COc1ccc(-c2cc(=O)oc3c(C)c(OC(=O)[C@H](Cc4c[nH]c5ccccc45)NC(=O)OC(C)(C)C)ccc23)cc1", "note": "[Chemical Formula 1, [4-(4-methoxyphenyl)-8-methyl-2-oxochromen-7-yl] (2S)-3-(1H-indol-3-yl)-2-[(2-methylpropan-2-yl)oxycarbonylamino]propanoate]", "values": [{"measurement": "food intake", "setting": "high-fat diet mice [1]", "value": "no significant change"}, {"measurement": "rate of weight gain", "setting": "high-fat diet mice [1]", "value": "significantly reduced"}, {"measurement": "conjugation (binding) to hPPARγ-LBD, Western blotting", "setting": "[2]", "value": "as much potently as a PPAR agonist used as a positive control"}, {"measurement": "level of lipid droplet accumulation in the liver (Oil Red O)", "setting": "high-fat diet mice [3]; FIG. 18", "value": "reduced"}, {"measurement": "NAFLD activity score (H&E images of liver tissue)", "setting": "high-fat diet mice [3]; compared with WY14643 5 mg/kg/day, FIG. 17", "value": "better effect of improving the NAFLD disease index than the high-fat diet mice (HFD-WY) administered with WY14643"}, {"measurement": "histological findings of fatty liver-related diseases in liver tissue", "setting": "high-fat diet mice [3]; vs HFD-V, FIG. 16", "value": "reduced"}, {"measurement": "volume of adipose tissue (micro-CT)", "setting": "high-fat diet mice [4]", "value": "significantly reduced"}]}
